Holding throughout (assay): Fluo-4 calcium mobilization assay (FLIPR), stable inducible cells
What all share (type): cell-based
(In general: A change in cytosolic calcium serves as a functional read-out for many receptors and channels.)

The target in one assay is T1, TAS2R46 (Homo sapiens, UniProt P59540).
T1 construct: cDNA in pcDNA5/FRT/TO
T1 sequence (P59540 1-309): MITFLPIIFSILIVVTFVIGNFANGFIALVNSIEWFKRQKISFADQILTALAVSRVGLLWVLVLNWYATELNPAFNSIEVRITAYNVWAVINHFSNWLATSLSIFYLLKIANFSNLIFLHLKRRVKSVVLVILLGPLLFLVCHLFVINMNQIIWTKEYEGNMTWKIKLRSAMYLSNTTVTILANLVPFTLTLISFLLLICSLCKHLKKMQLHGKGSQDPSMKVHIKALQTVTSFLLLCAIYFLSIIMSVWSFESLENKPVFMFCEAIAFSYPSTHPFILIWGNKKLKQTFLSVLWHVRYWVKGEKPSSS
From the text:
Fluo-4 calcium mobilization assay (FLIPR), stable inducible cells on TAS2R46

A further assay has as its target T2, TAS2R43 (Homo sapiens, UniProt P59537).
T2 sequence (P59537 1-309): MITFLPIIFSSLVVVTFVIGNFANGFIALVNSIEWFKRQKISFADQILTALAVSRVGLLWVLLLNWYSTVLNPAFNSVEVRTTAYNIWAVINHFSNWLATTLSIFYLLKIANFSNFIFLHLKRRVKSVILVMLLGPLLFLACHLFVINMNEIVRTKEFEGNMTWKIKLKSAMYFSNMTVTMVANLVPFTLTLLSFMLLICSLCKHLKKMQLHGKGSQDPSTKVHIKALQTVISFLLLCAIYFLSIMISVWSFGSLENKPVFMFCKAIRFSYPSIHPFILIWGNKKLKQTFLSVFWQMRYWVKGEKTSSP
Conditions: for EC50: read-out: TAS2R43 / EC50-conc. From the text:
Fluo-4 calcium mobilization assay (FLIPR), stable inducible cells on TAS2R43

The target of another assay is T3, TAS2R14 (Homo sapiens, UniProt Q9NYV8).
T3 sequence (Q9NYV8 1-317): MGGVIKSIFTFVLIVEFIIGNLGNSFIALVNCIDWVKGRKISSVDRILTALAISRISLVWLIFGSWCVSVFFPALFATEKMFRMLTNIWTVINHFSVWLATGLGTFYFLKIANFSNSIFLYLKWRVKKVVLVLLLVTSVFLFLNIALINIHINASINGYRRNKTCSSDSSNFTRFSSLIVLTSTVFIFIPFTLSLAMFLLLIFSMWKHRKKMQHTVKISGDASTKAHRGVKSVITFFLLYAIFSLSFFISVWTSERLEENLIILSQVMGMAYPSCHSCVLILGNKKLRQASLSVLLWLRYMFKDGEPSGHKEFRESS
Conditions: agonist; C1 buffer pH 7.4; non-induced cells subtracted. From the text: Fluo-4 calcium mobilization assay (FLIPR), stable inducible cells on TAS2R14

[1] abbreviates: agonist, C1 buffer pH 7.4, non-induced cells subtracted.

Like-named read-outs stand apart in the source and are kept apart here.

Consider `CC1=C2C(=O)C=C(CO)[C@@H]2[C@H]2OC(=O)[C@@H](C)[C@@H]2[C@@H](O)C1` [11β,13-dihydrolactucin], for which, on TAS2R46 (setting [1]), the “TAS2R46 / Threshold” value was 30 µM. Also, on TAS2R43 (setting [1]), the TAS2R43 threshold was determined as 10 µM. At TAS2R14, the “TAS2R14 / Threshold” value amounted to 100 µM.
Turning to `C=C1C(=O)O[C@@H]2[C@H]3C(CO)=CC(=O)C3=C(C)C[C@H](O)[C@@H]12` [lactucin], the figures for the EC50 at TAS2R46 (read-out: TAS2R46 / EC50-conc.) and on TAS2R43 were 8.85 ± 1.17 µM and 14.9 ± 2.5 µM, respectively. Also, on TAS2R14, the “TAS2R14 / Threshold” value was found to be 100 µM.
With lactucopicrin, at TAS2R43 (setting [1]), the EC50 was determined as 0.46 ± 0.08 µM. For the same molecule, the “TAS2R14 / Threshold” value at TAS2R14 worked out at 30 µM.
